Data: patent US9107926B2, “Mutant selectivity and combinations of a phosphoinositide 3-kinase inhibitor compound and chemotherapeutic agents for the treatment of cancer” (Genentech, Inc., priority 2012, dated 2015)
pEC50: −log10 of the molar value.

Experiments:
[1] = system: H1781; assay: CellTiter-Glo cell proliferation assay; assay type: cell-based; conditions: NCI-H1781, Lung(NSCLC), PTEN
[2] = system: H520; assay: CellTiter-Glo cell proliferation assay; assay type: cell-based; conditions: Homo sapiens, NCI-H520, Lung(NSCLC), PTEN
[3] = system: H441; assay: CellTiter-Glo cell proliferation assay; assay type: cell-based; conditions: Homo sapiens, NCI-H441, Lung(NSCLC), K-RAS
[4] = system: H650; assay: CellTiter-Glo cell proliferation assay; assay type: cell-based; conditions: Homo sapiens, NCI-H650, Lung(NSCLC), K-RAS
[5] = system: H647; assay: CellTiter-Glo cell proliferation assay; assay type: cell-based; conditions: Homo sapiens, NCI-H647, Lung(NSCLC), K-RAS
[6] = system: HCC1954; assay: CellTiter-Glo cell proliferation assay; assay type: cell-based; conditions: Homo sapiens, Breast, Kinase-HOM.1047H > L
Experimental: (§1) Cell Culture Medium: RPMI or DMEM high glucose, 10% Fetal Bovine Serum, 2 mM L-Glutamine, P/S. Incubate O/N (overnight) at 37° C., 5% CO2.
(§2) Drug Addition to Cells, Cell Plate (1:10 dilution): Add 6 μl of media+compound directly to cells (54 μl of media on the cells already). Incubate 3 days at 37° C., 5% CO2 in an incubator that will not be opened often.
(§3) Day 5—Develop Plates, Thaw Cell Titer Glo Buffer at room temperature: Remove Cell Plates from 37° C. and equilibrate to room temperature for about 30 minutes. Add Cell Titer-Glo® Buffer to Cell Titer-Glo® Substrate (bottle to bottle). Add 30 μl Cell Titer-Glo® Reagent (Promega cat.#G7572) to each well of cells. Place on plate shaker for about 30 minutes. Read luminescence on Analyst HT Plate Reader (half second per well).

[7] = system: SW620; assay: CellTiter-Glo cell proliferation assay; assay type: cell-based; conditions: Homo sapiens, SW-620, Colon, K-RAS
[8] = system: SW48 isogenic cells; parental and PIK3CA knock-in mutants E545K and H1047R; assay: western blot of cell lysates after 18 hours of GDC-0032 exposure; assay type: cell-based; conditions: lysates collected 18 hours post dosing
[9] = system: EBC-1; assay: CellTiter-Glo cell proliferation assay; assay type: cell-based; conditions: Homo sapiens, Lung(NSCLC), K-RAS
[10] = system: H322; assay: CellTiter-Glo cell proliferation assay; assay type: cell-based; conditions: NCI-H322, Lung(NSCLC), WT
[11] = system: EFM-192A; assay: CellTiter-Glo cell proliferation assay; assay type: cell-based; conditions: Breast, HET.420C > R
[12] = system: H358; assay: CellTiter-Glo cell proliferation assay; assay type: cell-based; conditions: Homo sapiens, NCI-H358, Lung(NSCLC), K-RAS
[13] = system: HCC-1143; assay: CellTiter-Glo cell proliferation assay; assay type: cell-based; conditions: Homo sapiens, HCC1143, Breast, WT
[14] = system: MDA-MB-468; assay: CellTiter-Glo cell proliferation assay; assay type: cell-based; conditions: Homo sapiens, Breast, PTEN
[15] = system: U87MG; assay: CellTiter-Glo cell proliferation assay; assay type: cell-based; conditions: Homo sapiens, U-87 MG, Glioma, PTEN
[16] = system: H23; assay: CellTiter-Glo cell proliferation assay; assay type: cell-based; conditions: Homo sapiens, NCI-H23, Lung(NSCLC), K-RAS
[17] = system: A427; assay: CellTiter-Glo cell proliferation assay; assay type: cell-based; conditions: Homo sapiens, A-427, Lung(NSCLC), K-RAS
[18] = system: Endocrine-resistant MCF7-ARO cells; assay: 4 day CellTiter-Glo assay in endocrine resistant cells; assay type: cell-based, human; conditions: obtained by letrozole dose escalation over about 4 months
[19] = system: HCC1954.x1 breast tumor xenografts; assay: In vivo mouse tumor xenograft efficacy; parameters: species or system mice; conditions: for % TGI@ day 21: QD x 21, PO
Experimental: The term uL means microliter.
Xenografts were initiated with cancer cells. […] Volume was calculated using the formula: […]

[20] = system: HOP18; assay: CellTiter-Glo cell proliferation assay; assay type: cell-based; conditions: Homo sapiens, HOP-18, Lung(NSCLC), K-RAS
[21] = system: Calu-6; assay: CellTiter-Glo cell proliferation assay; assay type: cell-based; conditions: Homo sapiens, Lung(NSCLC), K-RAS
[22] = system: SW48 PIK3CA H1047R knock-in mutant subclone; assay: four day CellTiter-Glo viability assay, SW48 isogenic cell line set; conditions: Homo sapiens, SW48, 96 h, read-out: Viability EC50
Source text: SW48 parental cells and knock-in mutant subclones harboring common PIK3CA hotspot mutations E545K or H1047R were obtained from Horizon Discovery.

[23] = system: H1568; assay: CellTiter-Glo cell proliferation assay; assay type: cell-based; conditions: NCI-H1568, Lung(NSCLC), WT
[24] = system: KNS-62; assay: CellTiter-Glo cell proliferation assay; assay type: cell-based; conditions: Homo sapiens, Lung(NSCLC), K-RAS
[25] = system: HCC-1428; assay: CellTiter-Glo cell proliferation assay; assay type: cell-based; conditions: Homo sapiens, HCC1428, Breast, WT
[26] = system: AU565; assay: CellTiter-Glo cell proliferation assay; assay type: cell-based; conditions: Homo sapiens, Breast, HER2 Amplified
[27] = system: PC3; assay: CellTiter-Glo cell proliferation assay; assay type: cell-based; conditions: Homo sapiens, PC-3, Prostate, PTEN
[28] = system: HDQ-P1; assay: CellTiter-Glo cell proliferation assay; assay type: cell-based; conditions: Homo sapiens, Breast, WT
Experimental: as §1, §2, §3

[29] = system: H2030; assay: CellTiter-Glo cell proliferation assay; assay type: cell-based; conditions: Homo sapiens, NCI-H2030, Lung(NSCLC), K-RAS
[30] = system: A375; assay: CellTiter-Glo cell proliferation assay; assay type: cell-based; conditions: Homo sapiens, A-375, Melanoma, B-Raf
[31] = system: SW1573; assay: CellTiter-Glo cell proliferation assay; assay type: cell-based; conditions: Homo sapiens, Lung(NSCLC), K-RAS
[32] = system: HOP62; assay: CellTiter-Glo cell proliferation assay; assay type: cell-based; conditions: Homo sapiens, HOP-62, Lung(NSCLC), K-RAS
[33] = system: H82; assay: CellTiter-Glo cell proliferation assay; assay type: cell-based; conditions: Homo sapiens, NCI-H82, Lung(SC), PTEN
[34] = system: MCF7-neo/HER2; assay: CellTiter-Glo cell proliferation assay; assay type: cell-based; conditions: Breast, Helical-HET.545E > K
Experimental: as §1, §2, §3

[35] = system: TOV21GX1; assay: CellTiter-Glo cell proliferation assay; assay type: cell-based; conditions: Ovarian, PTEN/HET.1047H > Y
[36] = system: HCC-2218; assay: CellTiter-Glo cell proliferation assay; assay type: cell-based; conditions: Homo sapiens, HCC2218, Breast, WT
[37] = system: KM12; assay: CellTiter-Glo cell proliferation assay; assay type: cell-based; conditions: Homo sapiens, Colon, PTEN
[38] = system: H661; assay: CellTiter-Glo cell proliferation assay; assay type: cell-based; conditions: Homo sapiens, NCI-H661, Lung(NSCLC), WT
[39] = system: SKOV3; assay: CellTiter-Glo cell proliferation assay; assay type: cell-based; conditions: Homo sapiens, SK-OV-3, Ovarian, Kinase-HET.1047H > R, HET.350D > N
Experimental: as §1, §2, §3

`Cc1nc(-c2cn3c(n2)-c2ccc(-c4cnn(C(C)(C)C(N)=O)c4)cc2OCC3)n(C(C)C)n1` [GDC-0032, 2-(4-(2-(1-isopropyl-3-methyl-1H-1,2,4-triazol-5-yl)-5,6-dihydrobenzo[f]imidazo[1,2-d][1,4]oxazepin-9-yl)-1H-pyrazol-1-yl)-2-methylpropanamide] gave a pEC50 [1] of 6.25, a pEC50 [2] of 6.58 and a pEC50 [3] of 5.00. The pEC50 [4] was 5.00, the pEC50 [5] was 5.04 and the pEC50 [6] was 6.99. The pEC50 [7] was 5.00, the “apoptosis induction (autoradiograms of lysates)” value [8] was “induces apoptosis in cells harboring PI3K mutations at very low compound concentrations” and the pEC50 [9] was 5.78. For the same compound, the pEC50 [10] was 6.55, the pEC50 [11] was 7.00 and the pEC50 [12] was 6.66. For the same compound, the pEC50 [13] was 5.53, the pEC50 [14] was 5.10 and the pEC50 [15] was 5.99. For the same compound, the pEC50 [16] was 5.56, the pEC50 [17] was 5.00 and the “sensitivity of endocrine-resistant cells” value [18] was “sensitive to GDC-0032”. For the same compound, the “% TGI@ day 21” value ([19]; 1.56 mg/kg) was 53%, the “% TGI@ day 21” value ([19]; 3.125 mg/kg) was 79% and the “% TGI@ day 21” value ([19]; 6.25 mg/kg) was 98%. The “% TGI@ day 21” value ([19]; 12.5 mg/kg) was 118%, the “% TGI@ day 21” value ([19]; 25 mg/kg) was 138% and the “maximum TGI” value ([19]; daily dosing, end of dosing on day 21) was 138%. For the same compound, the tumor response ([19]; doses of 12.5 and 25 mg/kg) was “Tumor regressions were observed”, the pEC50 [20] was 7.11 and the pEC50 [21] was 5.00. The pEC50 [22] was 8.10, the pEC50 [23] was 5.00 and the pEC50 [24] was 5.45. It also gave a pEC50 [25] of 5.00, a pEC50 [26] of 7.03 and a pEC50 [27] of 6.06. For the same compound, the pEC50 [28] was 6.59, the pEC50 [29] was 5.64 and the pEC50 [30] was 5.00. It also gave a pEC50 [31] of 6.55, a pEC50 [32] of 5.51 and a pEC50 [33] of 5.00. For the same compound, the pEC50 [34] was 6.75, the pEC50 [35] was 5.00 and the pEC50 [36] was 7.05. For the same compound, the pEC50 [37] was 5.33, the pEC50 [38] was 6.30 and the pEC50 [39] was 7.12.
